Common to all, as to assay type: biochemical
The target in test [1] is T1, human Lck enzyme (Homo sapiens, UniProt P06239).
T1 construct: purchased Carna Biosciences, Inc. 08-170
The test can be described thus: Lck enzyme inhibitory activity (time-resolved fluorometry, biotinylated peptide phosphorylation). As to conditions: read-out: LCK_IC50. The essentials:
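Readout pairs a europium cryptate-labelled anti-phosphotyrosine antibody with XL665-streptavidin, measured by time-resolved fluorescence. IC50 derived from percent inhibition against untreated controls.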

For test [2], the target named is T2, human Yes1 enzyme (Homo sapiens, UniProt P07947).
T2 construct: made in house
The test can be described thus: Yes1 enzyme inhibitory activity (time-resolved fluorometry, biotinylated peptide phosphorylation). The note with it: read-out: YES_IC50. The gist of the method: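 Inhibition was expressed against a compound-free control to give IC50, using TR-FRET read-out (Eu-cryptate anti-pTyr antibody, streptavidin-XL665).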

The target of test [3] is T3, human Src enzyme (Homo sapiens, UniProt P12931).
T3 construct: purchased Carna Biosciences, Inc. 08-173
The test can be described thus: Src enzyme inhibitory activity (time-resolved fluorometry, biotinylated peptide phosphorylation). As to conditions: read-out: SRC_IC50. The essentials: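 Compounds were tested for blocking tyrosine phosphorylation of a biotinylated peptide substrate by recombinant human Src. Phosphorylated product was quantified by time-resolved fluorometry using europium cryptate and XL665 conjugates, and IC50 was calculated against the compound-free control.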

The mark [4] stands for this setting: biotinylated peptide phosphorylation.

Like-named read-outs stand apart in the source and are kept apart here.

T2 sequence (P07947 whole entry): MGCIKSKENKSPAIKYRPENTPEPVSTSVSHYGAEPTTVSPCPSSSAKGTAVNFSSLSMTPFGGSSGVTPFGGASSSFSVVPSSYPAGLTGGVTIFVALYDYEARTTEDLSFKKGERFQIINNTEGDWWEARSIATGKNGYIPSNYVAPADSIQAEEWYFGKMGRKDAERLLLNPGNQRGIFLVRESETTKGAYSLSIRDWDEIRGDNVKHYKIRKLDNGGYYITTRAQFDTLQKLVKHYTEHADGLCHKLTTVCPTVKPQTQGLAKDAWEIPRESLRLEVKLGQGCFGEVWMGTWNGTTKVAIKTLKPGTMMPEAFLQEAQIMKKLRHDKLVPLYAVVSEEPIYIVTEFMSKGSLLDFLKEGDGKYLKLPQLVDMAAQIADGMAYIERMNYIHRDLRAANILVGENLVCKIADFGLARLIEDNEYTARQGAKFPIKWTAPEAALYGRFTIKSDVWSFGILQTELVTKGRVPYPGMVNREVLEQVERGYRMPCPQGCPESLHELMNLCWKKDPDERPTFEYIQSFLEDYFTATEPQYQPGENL
T1 sequence (P06239 whole entry): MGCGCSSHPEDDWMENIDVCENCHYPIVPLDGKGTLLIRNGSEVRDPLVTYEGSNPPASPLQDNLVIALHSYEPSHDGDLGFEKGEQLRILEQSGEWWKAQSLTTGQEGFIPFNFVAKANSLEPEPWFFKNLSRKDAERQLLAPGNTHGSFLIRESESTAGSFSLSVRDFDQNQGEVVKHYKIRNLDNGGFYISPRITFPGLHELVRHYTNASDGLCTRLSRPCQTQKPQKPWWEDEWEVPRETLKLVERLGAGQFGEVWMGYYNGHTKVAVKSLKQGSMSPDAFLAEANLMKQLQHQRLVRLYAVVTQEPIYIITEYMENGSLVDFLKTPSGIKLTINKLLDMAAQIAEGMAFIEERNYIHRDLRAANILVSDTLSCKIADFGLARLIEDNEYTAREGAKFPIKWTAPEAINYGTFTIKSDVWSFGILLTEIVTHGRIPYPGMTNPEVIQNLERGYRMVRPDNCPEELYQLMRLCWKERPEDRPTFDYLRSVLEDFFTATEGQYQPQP
T3 sequence (P12931 whole entry): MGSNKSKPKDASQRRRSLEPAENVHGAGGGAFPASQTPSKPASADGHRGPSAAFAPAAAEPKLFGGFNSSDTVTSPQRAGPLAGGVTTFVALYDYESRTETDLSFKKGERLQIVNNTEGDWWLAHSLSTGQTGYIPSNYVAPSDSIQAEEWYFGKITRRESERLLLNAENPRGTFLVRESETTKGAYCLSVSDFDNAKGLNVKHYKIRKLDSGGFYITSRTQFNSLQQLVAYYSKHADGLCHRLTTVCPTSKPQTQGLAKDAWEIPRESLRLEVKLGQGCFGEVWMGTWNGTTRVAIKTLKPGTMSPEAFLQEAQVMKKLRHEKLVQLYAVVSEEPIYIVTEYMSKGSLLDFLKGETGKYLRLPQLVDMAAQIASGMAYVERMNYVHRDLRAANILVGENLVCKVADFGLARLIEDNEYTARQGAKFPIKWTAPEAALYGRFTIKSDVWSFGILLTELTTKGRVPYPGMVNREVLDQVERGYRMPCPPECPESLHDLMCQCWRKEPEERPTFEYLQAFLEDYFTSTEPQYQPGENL

With `Cc1cc(Oc2ccccc2F)ccc1-n1ncc(C(=O)c2cc3cc(OC(F)F)c(-n4c(C)cc(=O)[nH]c4=O)cc3[nH]2)c1N` [Example 4-23-031, 1-[2-[5-amino-1-[4-(2-fluorophenoxy)-2-methylphenyl]pyrazole-4-carbonyl]-5-(difluoromethoxy)-1H-indol-6-yl]-6-methylpyrimidine-2,4-dione], the IC50 is 5.2 nM in test [1] (setting [4]), 1.5 nM in test [2] (setting [4]) and 14 nM in test [3] (setting [4]).

As to `Cc1cc(Oc2ccccc2F)ccc1-n1ncc(C(=O)c2cc3cc(OCC(F)F)c(N4C(=O)[C@@H]5C[C@H](NS(=O)(=O)CCCF)CN5C4=O)cc3[nH]2)c1N` [Example 5-1-255, N-[(6S,7aS)-2-[2-[5-amino-1-[4-(2-fluorophenoxy)-2-methylphenyl]pyrazole-4-carbonyl]-5-(2,2-difluoroethoxy)-1H-indol-6-yl]-1,3-dioxo-5,6,7,7a-tetrahydropyrrolo[1,2-c]imidazol-6-yl]-3-fluoropropane-1-sulfonamide], the IC50 in test [1] was found to be 4.5 nM; in test [2] it was 1.1 nM; in test [3] it was 8.9 nM.

Regarding `CS(=O)(=O)Nc1cc2[nH]c(C(=O)c3cnn(-c4c(Cl)cc(Oc5cccc(F)c5F)cc4Cl)c3N)cc2cc1F` [Example 5-1-024, N-[2-[5-amino-1-[2,6-dichloro-4-(2,3-difluorophenoxy)phenyl]pyrazole-4-carbonyl]-5-fluoro-1H-indol-6-yl]methanesulfonamide], the IC50 in test [1] turned out to be 83 nM; in test [2] it was 26 nM; in test [3] it was 340 nM.

Turning to `Cc1cc(Oc2ccc(F)cc2)ncc1-n1ncc(C(=O)c2cc3cc(F)c(NS(=O)(=O)C4CC4)cc3[nH]2)c1N` [Example 5-1-046, N-[2-[5-amino-1-[6-(4-fluorophenoxy)-4-methylpyridin-3-yl]pyrazole-4-carbonyl]-5-fluoro-1H-indol-6-yl]cyclopropanesulfonamide], the IC50 turned out to be 110 nM in test [1], 7.9 nM in test [2] and 160 nM in test [3].

In the case of `Cc1cc2cc(C(=O)c3cnn(-c4cnc(Oc5c(F)cccc5F)cc4C)c3N)[nH]c2cc1N1C(=O)N[C@@H](Cc2ccccc2)C1=O` [Example 5-1-452, (5S)-3-[2-[5-amino-1-[6-(2,6-difluorophenoxy)-4-methylpyridin-3-yl]pyrazole-4-carbonyl]-5-methyl-1H-indol-6-yl]-5-benzylimidazolidine-2,4-dione], the IC50 in test [1] (setting [4]) stood at 28 nM; in test [2] (setting [4]) it was 5.4 nM; in test [3] (setting [4]), 150 nM.

As for `Cc1cc2cc(C(=O)c3cnn(-c4cnc(Oc5ccccc5F)cc4C)c3N)[nH]c2cc1NS(=O)(=O)c1c(F)cc(F)cc1F` [Example 5-1-501, N-[2-[5-amino-1-[6-(2-fluorophenoxy)-4-methylpyridin-3-yl]pyrazole-4-carbonyl]-5-methyl-1H-indol-6-yl]-2,4,6-trifluorobenzenesulfonamide], the results for the IC50 in test [1] (setting [4]), in test [2] (setting [4]) and in test [3] (setting [4]) were 190 nM, 4.8 nM and 570 nM, respectively.

Regarding `Cc1cc(Oc2ccccc2F)cc(F)c1-n1ncc(C(=O)c2cc3cc(OCC(F)F)c(N4CCOCC4)cc3[nH]2)c1N` [Example 4-25-021, [5-amino-1-[2-fluoro-4-(2-fluorophenoxy)-6-methylphenyl]pyrazol-4-yl]-[5-(2,2-difluoroethoxy)-6-morpholin-4-yl-1H-indol-2-yl]methanone], the IC50 in test [1] (setting [4]) came to 4.6 nM; in test [2] (setting [4]) it was 2.1 nM; in test [3] (setting [4]), 16 nM.

As to `Cc1cc(Oc2ccccc2F)ncc1-n1ncc(C(=O)c2cc3cc(F)c(NS(=O)(=O)NCCO)cc3[nH]2)c1N` [Example 4-6-001, {5-amino-1-[6-(2-fluorophenoxy)-4-methylpyridin-3-yl]pyrazol-4-yl}-[5-fluoro-6-(2-hydroxyethylsulfamoylamino)-1H-indol-2-yl]methanone], the IC50 turned out to be 13 nM in test [1] (setting [4]), 0.92 nM in test [2] (setting [4]) and 70 nM in test [3] (setting [4]).

Regarding `Cc1cc2cc(C(=O)c3cnn(-c4cnc(Oc5c(F)cccc5F)cc4C)c3N)[nH]c2cc1N1CCC(N2CCOCC2)CC1` [Example 4-2-125, [5-amino-1-[6-(2,6-difluorophenoxy)-4-methylpyridin-3-yl]pyrazol-4-yl]-[5-methyl-6-(4-morpholin-4-ylpiperidin-1-yl)-1H-indol-2-yl]methanone], the IC50 is 2.6 nM in test [1] (setting [4]), 2.4 nM in test [2] (setting [4]) and 28 nM in test [3] (setting [4]).

With `Cc1cc(Oc2ccccc2F)ccc1-n1ncc(C(=O)c2cc3cc(OCC(F)F)c(N4C(=O)NC5(CCNCC5)C4=O)cc3[nH]2)c1N` [Example 5-1-271, 3-[2-[5-amino-1-[4-(2-fluorophenoxy)-2-methylphenyl]pyrazole-4-carbonyl]-5-(2,2-difluoroethoxy)-1H-indol-6-yl]-1,3,8-triazaspiro [4.5]decane-2,4-dione], the IC50 in test [1] was 3.2 nM; in test [2], 0.51 nM; in test [3], 7.2 nM.

Regarding `Cc1cc2cc(C(=O)c3cnn(-c4ccc(Oc5cccc(F)c5F)cc4C)c3N)[nH]c2cc1NS(C)(=O)=O` [Example 4-2-054, N-[2-[5-amino-1-[4-(2,3-difluorophenoxy)-2-methylphenyl]pyrazole-4-carbonyl]-5-methyl-1H-indol-6-yl]methanesulfonamide], the IC50 amounted to 15 nM in test [1] (setting [4]), 1.5 nM in test [2] (setting [4]) and 62 nM in test [3] (setting [4]).

As for `Cc1cc(Oc2c(F)cccc2F)ncc1-n1ncc(C(=O)c2cc3cc(F)c(NS(=O)(=O)c4cncc(Cl)c4)cc3[nH]2)c1N` [Example 5-1-543, N-[2-[5-amino-1-[6-(2,6-difluorophenoxy)-4-methylpyridin-3-yl]pyrazole-4-carbonyl]-5-fluoro-1H-indol-6-yl]-5-chloropyridine-3-sulfonamide], the results for the IC50 in test [1] (setting [4]), in test [2] (setting [4]) and in test [3] (setting [4]) were 360 nM, 9.8 nM and 640 nM, respectively.

Consider `Cc1cc(Oc2c(F)cccc2F)ncc1-n1ncc(C(=O)c2cc3cc(SC(F)F)c(NS(=O)(=O)C4CCOCC4)cc3[nH]2)c1N` [Example 5-1-346, N-[2-[5-amino-1-[6-(2,6-difluorophenoxy)-4-methylpyridin-3-yl]pyrazole-4-carbonyl]-5-(difluoromethylsulfanyl)-1H-indol-6-yl]oxane-4-sulfonamide], for which the IC50 in test [1] was determined as 120 nM; in test [2], 8.8 nM; in test [3] it was 510 nM.

Turning to `Cc1cc2cc(C(=O)c3cnn(-c4ccc(Oc5ccccc5F)cc4C)c3N)[nH]c2cc1N1C(=O)NC2(CCC2)C1=O` [Example 5-1-371, 7-[2-[5-amino-1-[4-(2-fluorophenoxy)-2-methylphenyl]pyrazole-4-carbonyl]-5-methyl-1H-indol-6-yl]-5,7-diazaspiro[3.4]octane-6,8-dione], the figures for the IC50 in test [1], in test [2] and in test [3] were 9.8 nM, 2 nM and 30 nM, respectively.

On to `Cc1cc(Oc2ccccc2F)ccc1-n1ncc(C(=O)c2cc3cc(OCC(F)F)c(-n4c(C)cc(=O)[nH]c4=O)cc3[nH]2)c1N` [Example 4-23-030, 1-[2-[5-amino-1-[4-(2-fluorophenoxy)-2-methylphenyl]pyrazole-4-carbonyl]-5-(2,2-difluoroethoxy)-1H-indol-6-yl]-6-methylpyrimidine-2,4-dione], for which the figures for the IC50 in test [1] (setting [4]), in test [2] (setting [4]) and in test [3] (setting [4]) were 3.8 nM, 1.4 nM and 6.4 nM, respectively.

On to `Cc1cc(Oc2ccccc2F)ccc1-n1ncc(C(=O)c2cc3cc(OCCN4CCOCC4)c(NS(C)(=O)=O)cc3[nH]2)c1N` [Example 4-24-034, N-[2-[5-amino-1-[4-(2-fluorophenoxy)-2-methylphenyl]pyrazole-4-carbonyl]-5-(2-morpholin-4-ylethoxy)-1H-indol-6-yl]methanesulfonamide], for which the IC50 in test [1] (setting [4]) was 4.7 nM; in test [2] (setting [4]) it was 0.39 nM; in test [3] (setting [4]) it was 8.1 nM.

Regarding `COc1cc2cc(C(=O)c3cnn(-c4ccc(Oc5ccccc5F)cc4C)c3N)[nH]c2cc1NS(=O)(=O)CC(=O)N1CCCC1` [Example 5-1-122, N-[2-[5-amino-1-[4-(2-fluorophenoxy)-2-methylphenyl]pyrazole-4-carbonyl]-5-methoxy-1H-indol-6-yl]-2-oxo-2-pyrrolidin-1-ylethanesulfonamide], the IC50 in test [1] was determined as 4.6 nM; in test [2], 0.39 nM; in test [3] it was 30 nM.

Turning to `Cc1cc2cc(C(=O)c3cnn(-c4cnc(Oc5c(F)cccc5F)cc4C)c3N)[nH]c2cc1NS(=O)(=O)C1CC1` [Example 4-1-017, N-[2-[5-amino-1-[6-(2,6-difluorophenoxy)-4-methylpyridin-3-yl]pyrazole-4-carbonyl]-5-methyl-1H-indol-6-yl]cyclopropanesulfonamide], the IC50 in test [1] (setting [4]) was found to be 4.9 nM; in test [2] (setting [4]), 3.1 nM; in test [3] (setting [4]) it was 100 nM.

Take `Cc1cc(Oc2c(F)cccc2F)ncc1-n1ncc(C(=O)c2cc3cc(OC4CCN(C(C)C)CC4)c(N4CCOC4=O)cc3[nH]2)c1N` [Example 5-1-186, 3-[2-[5-amino-1-[6-(2,6-difluorophenoxy)-4-methylpyridin-3-yl]pyrazole-4-carbonyl]-5-(1-propan-2-ylpiperidin-4-yl)oxy-1H-indol-6-yl]-1,3-oxazolidin-2-one]: the IC50 worked out at 1.3 nM in test [1], 0.28 nM in test [2] and 1.9 nM in test [3].

Consider `Cc1cc(Oc2ccccc2F)ccc1-n1ncc(C(=O)c2cc3cc(OCC(F)F)c(N4C(=O)[C@@H]5C[C@@H](O)CN5C4=O)cc3[nH]2)c1N` [Example 5-1-250], for which the IC50 was determined as 2.8 nM in test [1], 0.76 nM in test [2] and 7.5 nM in test [3].

(Values after patent US10479780B2, “Aminopyrazole derivatives” (Chugai Seiyaku Kabushiki Kaisha, priority 2015, dated 2019).)
